Measurements reported in patent US20250136606A1, “MODULATORS OF TRPML, THEIR COMPOSITIONS AND METHODS OF USE” (Caraway Therapeutics, Inc., priority 2021, published 2025).

How the values were obtained:
Format in all cases: cell-based
TRPML2 = target: T1, TRPML2 (Homo sapiens, UniProt Q8IZK6); assay: Fluorescent TRPML2 assay (performed as for TRPML1, substituting the TRPML2 subtype)
T1 construct: expressed in transfected cells
T1 sequence (Q8IZK6 1-566): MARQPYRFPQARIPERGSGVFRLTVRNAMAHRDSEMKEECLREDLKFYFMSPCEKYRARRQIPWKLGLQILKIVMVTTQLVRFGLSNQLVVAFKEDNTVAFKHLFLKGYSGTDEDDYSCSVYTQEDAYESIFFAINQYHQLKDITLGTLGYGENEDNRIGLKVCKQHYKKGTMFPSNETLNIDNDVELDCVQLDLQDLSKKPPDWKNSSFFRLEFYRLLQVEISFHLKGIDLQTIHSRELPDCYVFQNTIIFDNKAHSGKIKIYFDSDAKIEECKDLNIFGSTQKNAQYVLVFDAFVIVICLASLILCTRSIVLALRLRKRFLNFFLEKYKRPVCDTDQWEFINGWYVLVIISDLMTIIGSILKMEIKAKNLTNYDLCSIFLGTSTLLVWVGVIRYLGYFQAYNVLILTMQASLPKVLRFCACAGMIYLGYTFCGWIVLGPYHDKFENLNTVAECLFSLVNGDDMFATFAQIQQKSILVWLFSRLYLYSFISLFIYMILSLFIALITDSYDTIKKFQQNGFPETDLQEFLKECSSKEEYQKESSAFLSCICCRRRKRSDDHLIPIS
Outline: (§1)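 Agonist activity is scored as percent of plate controls from Fluo4 fluorescence after dye-loaded, doxycycline-induced HEK-293 Trex cells meet compound in high-calcium (10 mM) Ringer's. Compounds run in half-log dilutions from 20 micromolar final, in triplicate.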

TRPML3 = target: T2, TRPML3 (Homo sapiens, UniProt Q8TDD5); assay: Fluorescent TRPML3 assay (performed as for TRPML1, substituting the TRPML3 subtype)
T2 construct: expressed in transfected cells
T2 sequence (Q8TDD5 1-553): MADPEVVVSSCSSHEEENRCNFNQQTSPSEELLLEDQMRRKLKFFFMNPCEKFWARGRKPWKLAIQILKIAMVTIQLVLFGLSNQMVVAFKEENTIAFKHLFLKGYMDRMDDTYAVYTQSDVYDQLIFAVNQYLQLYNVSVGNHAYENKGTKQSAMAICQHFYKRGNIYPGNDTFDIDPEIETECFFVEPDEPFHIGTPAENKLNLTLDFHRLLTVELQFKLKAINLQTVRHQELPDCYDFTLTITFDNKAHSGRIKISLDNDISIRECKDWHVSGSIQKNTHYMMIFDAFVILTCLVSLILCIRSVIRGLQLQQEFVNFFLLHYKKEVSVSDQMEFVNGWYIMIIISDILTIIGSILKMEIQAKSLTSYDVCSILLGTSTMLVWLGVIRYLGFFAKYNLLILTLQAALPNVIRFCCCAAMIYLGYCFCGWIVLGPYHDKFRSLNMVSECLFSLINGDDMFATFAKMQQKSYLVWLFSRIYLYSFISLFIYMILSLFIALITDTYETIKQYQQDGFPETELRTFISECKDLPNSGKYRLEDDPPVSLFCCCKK
Outline: as §1

TRPML1 = TRPML1 (Homo sapiens, UniProt Q9GZU1); assay: Fluorescent TRPML1 assay (Fluo4-AM calcium fluorescence in doxycycline-induced HEK-293 Trex cells)
Outline: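 HEK-293 Trex cells stably expressing surface-directed mutant human TRPML1, induced with 0.5 µg/mL doxycycline overnight, were loaded with 1 µM Fluo4-AM and added to compound (6 nM–20 µM final, half-log steps, triplicate) in Ringer's with 10 mM calcium. Fluorescence ex 480/em 540; EC50 by non-linear regression versus plate controls.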

TRPML1, sequence (Q9GZU1 whole entry L15A/L16A/L577A/L578A, form open): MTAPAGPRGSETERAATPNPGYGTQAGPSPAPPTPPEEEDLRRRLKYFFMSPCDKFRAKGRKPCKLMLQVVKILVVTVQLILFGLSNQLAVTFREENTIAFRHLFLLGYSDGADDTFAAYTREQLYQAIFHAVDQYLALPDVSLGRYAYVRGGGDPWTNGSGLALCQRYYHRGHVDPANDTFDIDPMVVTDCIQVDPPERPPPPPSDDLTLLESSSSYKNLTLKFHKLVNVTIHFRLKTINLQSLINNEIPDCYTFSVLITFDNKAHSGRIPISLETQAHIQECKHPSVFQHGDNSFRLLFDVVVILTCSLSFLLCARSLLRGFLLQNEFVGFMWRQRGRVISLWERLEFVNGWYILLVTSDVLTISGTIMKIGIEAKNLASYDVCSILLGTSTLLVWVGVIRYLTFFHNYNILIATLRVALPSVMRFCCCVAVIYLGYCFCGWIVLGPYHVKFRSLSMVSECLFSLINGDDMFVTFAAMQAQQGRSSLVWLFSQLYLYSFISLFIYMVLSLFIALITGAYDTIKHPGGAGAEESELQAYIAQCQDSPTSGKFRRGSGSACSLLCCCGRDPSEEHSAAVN

EC50 (TRPML2) [nM] | EC50 (TRPML3) [nM] | EC50 (TRPML1) [nM] | SMILES
100 to 500 | < 100 | < 100 | CCC(CC)OC(=O)N1C[C@H](C)N(c2ncnc3c2c(C(F)(F)F)cn3-c2cc(C#N)ccn2)C[C@H]1C [Compound 512, pentan-3-yl (2R,5S)-4-(7-(4-cyanopyridin-2-yl)-5-(trifluoromethyl)-7H-pyrrolo[2,3-d]pyrimidin-4-yl)-2,5-dimethylpiperazine-1-carboxylate]
500 to 2000 | < 100 | < 100 | C[C@@H]1CN(c2ncnc3c2c(C(F)(F)F)cn3-c2cccc(C#N)c2)[C@@H](C)CN1C(=O)OC(C)(C)C [Compound 513, tert-butyl (2R,5S)-4-(7-(3-cyanophenyl)-5-(trifluoromethyl)-7H-pyrrolo[2,3-d]pyrimidin-4-yl)-2,5-dimethylpiperazine-1-carboxylate]
< 100 | < 100 | < 100 | C[C@H]1CN(C(=O)OC(C)(C)C)CCN1c1ncnc2c1c(C(F)F)cn2-c1cc(C#N)ccn1 [Compound 514, tert-butyl (S)-4-(7-(4-cyanopyridin-2-yl)-5-(difluoromethyl)-7H-pyrrolo[2,3-d]pyrimidin-4-yl)-3-methylpiperazine-1-carboxylate]
< 100 | < 100 | < 100 | C[C@@H]1CN(c2ncnc3c2c(C(F)(F)F)cn3-c2cc(C#N)ccn2)[C@@H](C)CN1C(=O)OC1CCC1 [Compound 516, cyclobutyl (2R,5S)-4-(7-(4-cyanopyridin-2-yl)-5-(trifluoromethyl)-7H-pyrrolo[2,3-d]pyrimidin-4-yl)-2,5-dimethylpiperazine-1-carboxylate]
100 to 500 | < 100 | < 100 | Cc1cc(C#N)cc(-n2cc(C(F)(F)F)c3c(N4C[C@@H](C)N(C(=O)OC(C)(C)C)C[C@@H]4C)ncnc32)n1 [Compound 517, tert-butyl (2R,5S)-4-(7-(4-cyano-6-methylpyridin-2-yl)-5-(trifluoromethyl)-7H-pyrrolo[2,3-d]pyrimidin-4-yl)-2,5-dimethylpiperazine-1-carboxylate]
< 100 | < 100 | < 100 | [2H]C([2H])([2H])C(OC(=O)N1C[C@H](C)N(c2ncnc3c2c(C(F)(F)F)cn3-c2cc(C#N)ccn2)C[C@H]1C)(C([2H])([2H])[2H])C([2H])([2H])[2H] [Compound 518, 2-(methyl-d3)propan-2-yl-1,1,1,3,3,3-d6 (2R,5S)-4-(7-(4-cyanopyridin-2-yl)-5-(trifluoromethyl)-7H-pyrrolo[2,3-d]pyrimidin-4-yl)-2,5-dimethylpiperazine-1-carboxylate]
100 to 500 | < 100 | < 100 | C[C@@H]1CN(c2ncnc3c2c(C(F)(F)F)cn3-c2cc(C#N)ccn2)[C@@H](C)CN1C(=O)OC1(C)CC1 [Compound 519, 1-methylcyclopropyl (2R,5S)-4-(7-(4-cyanopyridin-2-yl)-5-(trifluoromethyl)-7H-pyrrolo[2,3-d]pyrimidin-4-yl)-2,5-dimethylpiperazine-1-carboxylate]
100 to 500 | < 100 | < 100 | C[C@@H]1CN(c2ncnc3c2c(C(F)F)cn3-c2cc(C#N)ccn2)[C@@H](C)CN1C(=O)OC(C)(C)C [Compound 520, tert-butyl (2R,5S)-4-(7-(4-cyanopyridin-2-yl)-5-(difluoromethyl)-7H-pyrrolo[2,3-d]pyrimidin-4-yl)-2,5-dimethylpiperazine-1-carboxylate]
500 to 2000 | < 100 | < 100 | C[C@@H]1CN(c2ncnc3c2c(OC(F)F)cn3-c2cc(Cl)ccn2)[C@@H](C)CN1C(=O)OC(C)(C)C [Compound 521, tert-butyl (2R,5S)-4-(7-(4-chloropyridin-2-yl)-5-(difluoromethoxy)-7H-pyrrolo[2,3-d]pyrimidin-4-yl)-2,5-dimethylpiperazine-1-carboxylate]
100 to 500 | < 100 | 100 to 500 | C[C@H]1CN(C(=O)OC(C)(C)C)CCN1c1ncnc2c1c(N(C)C1CC1)cn2-c1cccc(Cl)c1 [Compound 522, tert-butyl (S)-4-(7-(3-chlorophenyl)-5-(cyclopropyl(methyl)amino)-7H-pyrrolo[2,3-d]pyrimidin-4-yl)-3-methylpiperazine-1-carboxylate]
< 100 | < 100 | < 100 | C[C@@H]1CN(c2ncnc3c2c(OC(F)F)cn3-c2cc(C#N)ccn2)[C@@H](C)CN1C(=O)OC(C)(C)C [Compound 523, tert-butyl (2R,5S)-4-(7-(4-cyanopyridin-2-yl)-5-(difluoromethoxy)-7H-pyrrolo[2,3-d]pyrimidin-4-yl)-2,5-dimethylpiperazine-1-carboxylate]
< 100 | < 100 | < 100 | C[C@@H]1CN(c2ncnc3c2c(OC(F)(F)F)cn3-c2cc(C#N)ccn2)[C@@H](C)CN1C(=O)OC(C)(C)C [Compound 524, tert-butyl (2R,5S)-4-(7-(4-cyanopyridin-2-yl)-5-(trifluoromethoxy)-7H-pyrrolo[2,3-d]pyrimidin-4-yl)-2,5-dimethylpiperazine-1-carboxylate]
< 100 | < 100 | < 100 | C[C@@H]1CN(c2ncnc3c2c(C(C)(C)C)cn3-c2cc(C#N)ccn2)[C@@H](C)CN1C(=O)OC(C)(C)C [Compound 525, tert-butyl (2R,5S)-4-(5-(tert-butyl)-7-(4-cyanopyridin-2-yl)-7H-pyrrolo[2,3-d]pyrimidin-4-yl)-2,5-dimethylpiperazine-1-carboxylate]
100 to 500 | 100 to 500 | 100 to 500 | C[C@H]1CN(C(=O)OC(C)(C)C)CCN1c1ncnc2c1c(N(C)C1CC1)cn2-c1cccc(C#N)c1 [Compound 526]
> 2000 | 500 to 2000 | 500 to 2000 | C[C@H]1CN(C(=O)OC(C)(C)C)CCN1c1ncnc2c1c(C1CC1)cn2[C@H]1CCC[C@@H](C#N)C1 [Compound 527, tert-butyl (S)-4-(7-(cis-3-cyanocyclohexyl)-5-cyclopropyl-7H-pyrrolo[2,3-d]pyrimidin-4-yl)-3-methylpiperazine-1-carboxylate]
< 100 | < 100 | 100 to 500 | CC(C)(C)OC(=O)N1CCN(c2ncnc3c2c(C(F)(F)F)cn3-c2cc(C#N)ccn2)C(C)(C)C1 [Compound 528, tert-butyl 4-(7-(4-cyanopyridin-2-yl)-5-(trifluoromethyl)-7H-pyrrolo[2,3-d]pyrimidin-4-yl)-3,3-dimethylpiperazine-1-carboxylate]
> 2000 | 100 to 500 | 500 to 2000 | C[C@H]1CN(C(=O)OC(C)(C)C)CCN1c1ncnc2c1c(N1CCCC1)cn2[C@H]1CCC[C@@H](C#N)C1 [Compound 529, tert-butyl (S)-4-(7-(cis-3-cyanocyclohexyl)-5-(pyrrolidin-1-yl)-7H-pyrrolo[2,3-d]pyrimidin-4-yl)-3-methylpiperazine-1-carboxylate]
< 100 | < 100 | < 100 | CC(C)(C)OC(=O)N1CCN(c2ncnc3c2c(C(F)(F)F)cn3-c2cc(C#N)ccn2)C2(CC2)C1 [Compound 530, tert-butyl 4-(7-(4-cyanopyridin-2-yl)-5-(trifluoromethyl)-7H-pyrrolo[2,3-d]pyrimidin-4-yl)-4,7-diazaspiro[2.5]octane-7-carboxylate]
500 to 2000 | 100 to 500 | < 100 | C[C@@H]1CN(c2ncnc3c2c(C(C)(C)C)cn3-c2nccc(C#N)n2)[C@@H](C)CN1C(=O)OC(C)(C)C [Compound 532, tert-butyl (2R,5S)-4-(5-(tert-butyl)-7-(4-cyanopyrimidin-2-yl)-7H-pyrrolo[2,3-d]pyrimidin-4-yl)-2,5-dimethylpiperazine-1-carboxylate]
